# Measurements published in patent publication US10701939B2, “Aqueous suspension agrochemical composition” (KUMIAI CHEMICAL INDUSTRY CO., LTD., priority 2015, dated 2020).
# Test system: wheat powdery mildew (Erysiphe graminis)
# Assay: Reference Example: efficacy reinforcement by adjuvant, control of wheat powdery mildew on potted wheat
# Type: in vivo
# Details: pyribencarb water-dispersible granules 30 g/ha, no adjuvant added (0 ppm); day 7 after inoculation
# Experimental: Pyribencarb (40 parts), sodium lignin sulfonate (5 parts), polyoxyethylene alkyl aryl ether (1 part), calcium carbonate (54 parts) and water (10 parts) were mixed, kneaded, extruded, and granulated, and the resultant granules were dried in a fluidized bed dryer to obtain water-dispersible granules. Thus obtained water-dispersible granules of pyribencarb were adjusted so as to have a predetermined concentration, and the adjuvant shown in the following Table 2 was added to the diluted solution to a concentration of 100 ppm to prepare a spray solution. In addition, a spray solution containing an adjuvant at a concentration of 100 ppm without containing water-dispersible granules of pyribencarb were separately prepared. Ten wheat seeds (variety: Norin No. 61) were sowed in a plastic cup having a diameter of 5.5 cm, and after grown for 7 days in a greenhouse, 25 ml/m^2 (30 g of pyribencarb per 1 ha) was sprayed onto the wheat at 1.5 to 2 leaf stage. After air-drying, conidia of wheat powdery mildew (Erysiphe graminis) were sprayed and inoculated, and the plant was placed in a greenhouse. On day 7 after inoculation, the disease onset area of the first leaves in the pot in the spray solution-treated region and the untreated region were indexed and investigated according to the criteria in Table 1 below. […]
compound,measurement,value
"COC(=O)NCc1cc(/C(C)=N/OCc2cccc(C)n2)ccc1Cl [pyribencarb, methyl={2-chloro-5-[(E)-1-(6-methyl-2-pyridylmethoxyimino)ethyl]benzyl}carbamate]",Control effect on wheat powdery mildew (control value),33.2%
